Measured values published in PMC10966990, “Rational design of a cyclohexanone dehydrogenase for enhanced α,β-desaturation and substrate specificity” (Chemical Science, 2024).

What was measured:
[1] = molecular target: T1, cyclohexanone dehydrogenase (CDH) (Alicycliphilus denitrificans, UniProt F4G7N3); assay: DCPIP colour change assay; format: biochemical; details: 0.25 uM enzyme, 2 mM substrate, 75 uM DCPIP, 20 mM Tris-HCl pH 7.8
T1 construct: gene Alide2_4318; full gene in pET28a, N-terminal His6 tag, E. coli BL21(DE3); dimer
Target sequence in this assay (F4G7N3 entry or part of it W94A, form open): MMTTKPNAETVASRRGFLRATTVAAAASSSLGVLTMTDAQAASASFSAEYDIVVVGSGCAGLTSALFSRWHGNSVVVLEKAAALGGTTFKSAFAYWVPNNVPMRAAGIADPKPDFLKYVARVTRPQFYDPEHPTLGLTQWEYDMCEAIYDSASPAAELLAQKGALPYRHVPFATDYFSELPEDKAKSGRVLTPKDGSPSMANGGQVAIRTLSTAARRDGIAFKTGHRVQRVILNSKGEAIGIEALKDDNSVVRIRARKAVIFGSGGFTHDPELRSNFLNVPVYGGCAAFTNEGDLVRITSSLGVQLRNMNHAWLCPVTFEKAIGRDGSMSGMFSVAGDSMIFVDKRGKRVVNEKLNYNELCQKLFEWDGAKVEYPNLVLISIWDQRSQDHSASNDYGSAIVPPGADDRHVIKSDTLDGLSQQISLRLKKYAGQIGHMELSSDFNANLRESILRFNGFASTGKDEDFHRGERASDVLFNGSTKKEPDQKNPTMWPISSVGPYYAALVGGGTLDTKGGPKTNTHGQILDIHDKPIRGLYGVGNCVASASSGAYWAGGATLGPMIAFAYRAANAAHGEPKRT

[2] = molecular target: T2, cyclohexanone dehydrogenase (CDH) (Alicycliphilus denitrificans, UniProt F4G7N3, Y176F, form not given); assay: X-ray crystal structure, […] A; format: binding; details: crystals grown with 10 mM cyclohexanone; product modelled in active site next to FAD, further molecules elsewhere
T2 construct: gene Alide2_4318; full gene in pET28a, N-terminal His6 tag, E. coli BL21(DE3); dimer

[3] = molecular target: T1, cyclohexanone dehydrogenase (CDH); assay: X-ray crystal structure, […] A; format: binding; details: covalent; C8M of FAD 1.84 A from S-gamma of Cys305
[4] = substrate: O=C1CCCCC1; assay: DCPIP reduction assay, Michaelis-Menten; format: biochemical, Alicycliphilus denitrificans; details: 76 nM enzyme, 60 uM DCPIP, 20 mM Tris-HCl pH 7.8
[5] = substrate: CC1CCCC(=O)C1; assay: DCPIP reduction assay, Michaelis-Menten; format: biochemical, Alicycliphilus denitrificans; details: 76 nM enzyme, 60 uM DCPIP, 20 mM Tris-HCl pH 7.8, low aqueous solubility of substrate, caution stated
purified protein = substrate: CC1(C)CCC(=O)CC1; assay: purified protein; details: pH 7.8

T2 sequence (F4G7N3 entry or part of it Y176F, form open): as the sequence (F4G7N3 entry or part of it W94A, form open) above, with A94W, Y176F counted along it

## CC1CCCC(=O)C1 (stereo not shown) [compound 2, 3-methylcyclohexanone]
[1]
  DCPIP colour change assay: The W113A variant showed highest activity on 3-methylcyclohexanone

## O=C1CCc2ccccc2O1 [compound 5, dihydrocoumarin]
[1]
  DCPIP colour change assay: the W113A variant, but not WT CDH, with dihydrocoumarin

## O=C1C=CCCC1 [compound 10, 2-cyclohexen-1-one]
[2]
  X-ray crystal structure, 1.33 A: 2-cyclohexen-1-one was subsequently modelled to produce the Y195F complex structure

## Cc1cc2nc3c(=O)[nH]c(=O)nc-3n(C[C@H](O)[C@H](O)[C@H](O)COP(=O)(O)OP(=O)(O)OC[C@H]3O[C@@H](n4cnc5c(N)ncnc54)[C@H](O)[C@@H]3O)c2cc1C [flavin adenine dinucleotide]
[3]
  X-ray crystal structure, 1.86 A: The FAD cofactor was found to occupy a deep positively charged channel

B1: cyclohexanone dehydrogenase (CDH) (Alicycliphilus denitrificans K601) (protein)
chain: MMTTKPNAETVASRRGFLRATTVAAAASSSLGVLTMTDAQAASASFSAEYDIVVVGSGCAGLTSALFSRWHGNSVVVLEKAAALGGTTFKSAFWYWVPNNVPMRAAGIADPKPDFLKYVARVTRPQFYDPEHPTLGLTQWEYDMCEAIYDSASPAAELLAQKGALPYRHVPFATDYFSELPEDKAKSGRVLTPKDGSPSMANGGQVAIRTLSTAARRDGIAFKTGHRVQRVILNSKGEAIGIEALKDDNSVVRIRARKAVIFGSGGFTHDPELRSNFLNVPVYGGCAAFTNEGDLVRITSSLGVQLRNMNHAWLCPVTFEKAIGRDGSMSGMFSVAGDSMIFVDKRGKRVVNEKLNYNELCQKLFEWDGAKVEYPNLVLISIWDQRSQDHSASNDYGSAIVPPGADDRHVIKSDTLDGLSQQISLRLKKYAGQIGHMELSSDFNANLRESILRFNGFASTGKDEDFHRGERASDVLFNGSTKKEPDQKNPTMWPISSVGPYYAALVGGGTLDTKGGPKTNTHGQILDIHDKPIRGLYGVGNCVASASSGAYWAGGATLGPMIAFAYRAANAAHGEPKRT
notes: full gene in pET28a, N-terminal His6 tag, E. coli BL21(DE3); dimer
[4]
  Km: 0.37 ± 0.04 mM
[5]
  Km: 9.31 ± 1.99 mM
Purified protein
  Km: 25.62 ± 7.68 mM
